The values that follow come from patent publication US11912693B2, “Compounds for modulating S1P1 activity and methods of using the same” (TREVENA, INC., priority 2017, dated 2024).

Structures are written as SMILES.

Experiment [1] concerns the target T1, human sphingosine-1-phosphate receptor 1 (S1P1) (Homo sapiens (Human), UniProt P21453). Description: Inhibition of cAMP production (HTRF cAMP HiRange), S1P1 CHO-K1 cells. The class given is cell-based. To be noted: for hS1P1 cAMP pEC50: inhibition of cAMP production, S1P1 CHO-K1 cells; for Emax: CHO-K1, efficacy (SPAN) normalized to fingolimod, read-out: hS1P1 cAMP SPAN. In short, it runs like this: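 CHO-K1 cells stably co-expressing human S1P1 (C-terminal Prolink tag) and EA-β-arrestin2 were grown in AssayComplete Media 6 at 37° C. and 5% CO2, plated, and incubated overnight. Agonist-driven inhibition of intracellular cAMP was read by TR-FRET with the HTRF cAMP HiRange kit on a PheraStar reader. Potency is pEC50, and efficacy (SPAN) is normalized to fingolimod.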
Target sequence in this assay (P21453 whole entry, looked up): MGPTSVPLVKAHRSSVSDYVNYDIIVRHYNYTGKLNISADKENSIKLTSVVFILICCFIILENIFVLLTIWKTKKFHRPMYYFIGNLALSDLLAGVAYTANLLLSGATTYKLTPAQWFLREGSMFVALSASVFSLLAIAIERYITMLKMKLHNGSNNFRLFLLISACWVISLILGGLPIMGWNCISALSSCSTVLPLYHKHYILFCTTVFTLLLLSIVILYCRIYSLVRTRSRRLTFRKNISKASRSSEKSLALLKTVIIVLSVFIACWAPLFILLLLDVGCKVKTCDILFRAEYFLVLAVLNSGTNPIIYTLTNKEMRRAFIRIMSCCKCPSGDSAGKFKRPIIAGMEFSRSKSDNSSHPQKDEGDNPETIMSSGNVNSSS

The target of experiment [2] is T1, human sphingosine-1-phosphate receptor 1 (S1P1). Description: β-Arrestin2 recruitment assay (PathHunter), S1P1 CHO-K1 cells. The class given is cell-based. The note with it: for hS1P1 B-arrestin2 pEC50: β-arrestin2 recruitment, S1P1 CHO-K1 cells; for Emax: CHO-K1, efficacy (SPAN) normalized to fingolimod, read-out: hS1P1 B-arrestin2 SPAN. The essentials: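 Enzyme-fragment complementation read-out: agonist-driven β-arrestin2 binding to ProLink-tagged human S1P1 in stable CHO-K1 cells restores β-galactosidase, measured 1 h at room temperature after a 60 min 37° C. compound incubation. Potency as pEC50, efficacy relative to fingolimod (SPAN).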
(Recruitment of arrestin is a read-out of receptor activation apart from second messengers.)
Target sequence in this assay (P21453 whole entry, looked up): as above
Target sequence in this assay (P32121 whole entry partner, looked up): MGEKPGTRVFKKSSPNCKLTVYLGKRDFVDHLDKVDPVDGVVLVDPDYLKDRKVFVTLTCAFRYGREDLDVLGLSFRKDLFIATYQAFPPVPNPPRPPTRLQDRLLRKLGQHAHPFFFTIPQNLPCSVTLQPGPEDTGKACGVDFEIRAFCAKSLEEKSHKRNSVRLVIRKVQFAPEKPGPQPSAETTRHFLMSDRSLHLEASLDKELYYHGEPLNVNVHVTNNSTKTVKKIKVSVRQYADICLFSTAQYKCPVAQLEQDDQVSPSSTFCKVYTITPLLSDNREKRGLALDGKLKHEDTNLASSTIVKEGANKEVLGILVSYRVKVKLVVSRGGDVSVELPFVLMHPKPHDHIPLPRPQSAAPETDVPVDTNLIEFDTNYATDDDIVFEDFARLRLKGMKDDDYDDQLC

Experiment [3] relates to paclitaxel induced peripheral neuropathy. Briefly: Reversal of allodynia induced by paclitaxel in mice (s.c. or p.o., von Frey frequency method). To be noted: Mus musculus; for inhibition in vivo at 1 mg/kg: sc, 0.5 h, 1 mg/kg s.c., tested 30 min after dosing, read-out: Screen @ 1 mg/kg sc (% MPE); for inhibition in vivo at 3 mg/kg: po, 1 h, 3 mg/kg p.o., tested 60 min after dosing, read-out: Screen @ 3 mg/kg po (% MPE). The class given is in vivo, c57bl/6 mice. As to the method: Compounds were tested for efficacy in mouse models of chemotherapy induced peripheral neuropathy. […] For these studies […]/6 mice are habituated to the test environment and baseline measurements of pain sensitivity are assessed. To determine mechanical responses, the threshold for responses to punctate mechanical stimuli (mechanical hyperalgesia) was tested according to the frequency method. In brief, the plantar surface of the animal hindpaw was stimulated with a single von Frey monofilament (0.4 g) for approximately 1-2 seconds. If there was a withdrawal response, it was recorded as a positive response. A response was defined as a lifting or shaking of the paw upon stimulation. This was repeated ten times for each mouse. The final measurement for each mouse is the % non-response to stimulation for the ten trials. The % non-response to stimulation is converted to a % MPE. For paclitaxel induced peripheral neuropathy, a series of injections of PAC (6 mg/kg, i.p.) on days 1, 3, 5 and 7 is used to induce peripheral neuropathy. After approximately 14 days from the initiation of PAC injections, animals are re-assessed for mechanical sensitivity. […] On test day animals are dosed with compounds either subcutaneously or orally and tested for mechanical response by the frequency method either 30 min (s.c.) or 60 min (p.o.) after drug administration. Data is presented as a % MPE. For oxaliplatin induced peripheral neuropathy, a series of injections of OXA (4 mg/kg, i.p.) on days 1-5 is used to induce peripheral neuropathy. After approximately 14 days from the initiation of PAC injections, animals are re-assessed for mechanical sensitivity. […] On test day animals are dosed with compounds subcutaneously and tested for mechanical response by the frequency method 30 min after drug administration. Data is presented as a % MPE. One or more of the compounds show reversal of chemotherapeutic induced peripheral neuropathy.

Consider `CC(C)n1nnc2cc(-c3noc(-c4ccccc4C(F)(F)F)n3)ccc21` [Compound 33, 3-(1-isopropylbenzotriazol-5-yl)-5-[2-(trifluoromethyl)phenyl]-1,2,4-oxadiazole], for which the “hS1P1 cAMP pEC50” value in experiment [1] is greater than 6.5. For the same compound, the “hS1P1 B-arrestin2 pEC50” value in experiment [2] is greater than 5. For the same compound, the inhibition in vivo at 1 mg/kg in experiment [3] is less than 50%.

For the compound `CCC1(CC)CC(=O)c2cc(-c3nc(-c4ccc(S(N)(=O)=O)cc4)no3)ccc2O1` [Compound 106, 4-(5-(2,2-diethyl-4-oxochroman-6-yl)-1,2,4-oxadiazol-3-yl)benzenesulfonamide], in experiment [1], the Emax was greater than 75% and the “hS1P1 cAMP pEC50” value was greater than 6.5. Moreover, in experiment [2], the Emax was greater than 75% and the “hS1P1 B-arrestin2 pEC50” value is reported as greater than 5. Further, the inhibition in vivo at 1 mg/kg in experiment [3] is less than 50%.

With `CC(C)Nc1ccc(-c2nc(-c3ccc4c(c3)CC(=O)N4)no2)cc1C#N` [Compound 107, 2-(isopropylamino)-5-(3-(2-oxoindolin-5-yl)-1,2,4-oxadiazol-5-yl)benzonitrile], in experiment [1], the Emax was greater than 75% and the “hS1P1 cAMP pEC50” value is on record as greater than 6.5. For the same compound, in experiment [2], the Emax was greater than 75% and the “hS1P1 B-arrestin2 pEC50” value is listed as greater than 5. For the same compound, the inhibition in vivo at 1 mg/kg in experiment [3] was less than 50%.

Consider `CCC1(CC)CC(=O)c2cc(-c3nc(-c4ccc(C(N)=O)cc4)no3)ccc2O1` [Compound 179, 4-(5-(2,2-diethyl-4-oxochroman-6-yl)-1,2,4-oxadiazol-3-yl)benzamide], for which, in experiment [1], the Emax was greater than 75% and the “hS1P1 cAMP pEC50” value is recorded as greater than 6.5. Further, in experiment [2], the Emax is greater than 75% and the “hS1P1 B-arrestin2 pEC50” value was greater than 5. In addition, in experiment [3], the inhibition in vivo at 3 mg/kg was greater than 50% and the inhibition in vivo at 1 mg/kg is greater than 50%.

Take `N#Cc1cc(-c2nc(-c3ccc4c(c3)CC(=O)N4)no2)ccc1NCC1CC1` [Compound 210, 2-((cyclopropylmethyl)amino)-5-(3-(2-oxoindolin-5-yl)-1,2,4-oxadiazol-5-yl)benzonitrile]: in experiment [1], the Emax was greater than 75% and the “hS1P1 cAMP pEC50” value is reported as greater than 6.5. Also, in experiment [2], the Emax was greater than 75% and the “hS1P1 B-arrestin2 pEC50” value is listed as greater than 5. The inhibition in vivo at 1 mg/kg in experiment [3] was less than 50%.

Take `C=CCNc1ccc(-c2nc(-c3ccc4c(c3)CC(=O)N4)no2)cc1C#N` [Compound 224, 2-(allylamino)-5-(3-(2-oxoindolin-5-yl)-1,2,4-oxadiazol-5-yl)benzonitrile]: in experiment [1], the Emax is greater than 75% and the “hS1P1 cAMP pEC50” value is reported as greater than 6.5. In addition, in experiment [2], the Emax is greater than 75% and the “hS1P1 B-arrestin2 pEC50” value is on record as greater than 5. The inhibition in vivo at 1 mg/kg in experiment [3] was greater than 50%.

As for `CCC1(CC)CC(=O)c2cc(-c3nc(-c4ccc5c(c4)nnn5C(C)C)no3)ccc2O1` [Compound 305, 2,2-diethyl-6-(3-(1-isopropyl-1H-benzo[d][1,2,3]triazol-5-yl)-1,2,4-oxadiazol-5-yl)chroman-4-one], the “hS1P1 cAMP pEC50” value in experiment [1] is less than 6.5. For the same compound, the “hS1P1 B-arrestin2 pEC50” value in experiment [2] is less than 5. In experiment [3], the inhibition in vivo at 1 mg/kg was greater than 50%.

Regarding `Cc1ccccc1-c1noc(-c2ccc3c(c2)nnn3C2CCC2)n1` [Compound 306, 1-cyclobutyl-5-[3-(2-methylphenyl)-1,2,4-oxadiazol-5-yl]-1H-1,2,3-benzotriazole], the “hS1P1 cAMP pEC50” value in experiment [1] was greater than 6.5. Further, the “hS1P1 B-arrestin2 pEC50” value in experiment [2] was greater than 5. The inhibition in vivo at 1 mg/kg in experiment [3] was less than 50%.

As for `CC(F)CNc1ccc(-c2nc(-c3ccc4c(c3)CCC(=O)N4)no2)cc1C#N` (centres unmarked) [Compound 348, 2-[(2-fluoropropyl)amino]-5-[3-(2-oxo-1,2,3,4-tetrahydroquinolin-6-yl)-1,2,4-oxadiazol-5-yl]benzonitrile], in experiment [1], the Emax was greater than 75% and the “hS1P1 cAMP pEC50” value is given as greater than 6.5. Further, in experiment [2], the Emax was greater than 75% and the “hS1P1 B-arrestin2 pEC50” value is recorded as greater than 5. The inhibition in vivo at 3 mg/kg in experiment [3] is greater than 50%.

For `N#Cc1cc(-c2nnc(-c3ccc4[nH]ncc4c3)o2)ccc1NCC(F)F` [Compound 354, 2-[(2,2-difluoroethyl)amino]-5-[5-(1H-indazol-5-yl)-1,3,4-oxadiazol-2-yl]benzonitrile], in experiment [1], the Emax was greater than 75% and the “hS1P1 cAMP pEC50” value is on record as greater than 6.5. In experiment [2], the Emax was greater than 75% and the “hS1P1 B-arrestin2 pEC50” value is greater than 5. For the same compound, in experiment [3], the inhibition in vivo at 3 mg/kg is greater than 50%.

With `N#Cc1cc(-c2nnc(-c3ccc4[nH]cnc4c3)o2)ccc1NCCF` [Compound 358, 5-[5-(1H-1,3-benzodiazol-5-yl)-1,3,4-oxadiazol-2-yl]-2-[(2-fluoroethyl)amino]benzonitrile], in experiment [1], the Emax was greater than 75% and the “hS1P1 cAMP pEC50” value was greater than 6.5. Besides, in experiment [2], the Emax was greater than 75% and the “hS1P1 B-arrestin2 pEC50” value is on record as greater than 5. Besides, the inhibition in vivo at 3 mg/kg in experiment [3] was greater than 50%.

With `N#Cc1cc(-c2nnc(-c3ccc4[nH]cnc4c3)o2)ccc1NCC(F)F` [Compound 359, 5-[5-(1H-1,3-benzodiazol-5-yl)-1,3,4-oxadiazol-2-yl]-2-[(2,2-difluoroethyl)amino]benzonitrile], in experiment [1], the Emax is greater than 75% and the “hS1P1 cAMP pEC50” value is on record as greater than 6.5. For the same compound, in experiment [2], the Emax is greater than 75% and the “hS1P1 B-arrestin2 pEC50” value is on record as greater than 5. The inhibition in vivo at 3 mg/kg in experiment [3] was greater than 50%.

In the case of `CCC1(CC)CC(=O)c2cc(-c3nc(-c4ccc5c(c4)CCC(=O)N5)no3)ccc2O1` [Compound 415, 6-(5-(2,2-diethyl-4-oxochroman-6-yl)-1,2,4-oxadiazol-3-yl)-3,4-dihydroquinolin-2(1H)-one], in experiment [1], the “hS1P1 cAMP pEC50” value is reported as greater than 6.5. For the same compound, in experiment [2], the “hS1P1 B-arrestin2 pEC50” value is on record as less than 5. Besides, the inhibition in vivo at 3 mg/kg in experiment [3] is less than 50%.

Regarding `CC(C)Nc1ccc(-c2nc(-c3ccc4c(c3)NC(=O)CC4)no2)cc1C#N` [Compound 435, 2-(isopropylamino)-5-(3-(2-oxo-1,2,3,4-tetrahydroquinolin-7-yl)-1,2,4-oxadiazol-5-yl)benzonitrile], the “hS1P1 cAMP pEC50” value in experiment [1] was greater than 6.5. Besides, the “hS1P1 B-arrestin2 pEC50” value in experiment [2] is greater than 5. Also, in experiment [3], the inhibition in vivo at 3 mg/kg was greater than 50%.

In the case of `CC(C)Nc1ccc(-c2nc(-c3ccc4c(c3)CCNC4=O)no2)cc1C#N` [Compound 442, 2-(isopropylamino)-5-(3-(1-oxo-1,2,3,4-tetrahydroisoquinolin-6-yl)-1,2,4-oxadiazol-5-yl)benzonitrile], in experiment [1], the “hS1P1 cAMP pEC50” value is listed as greater than 6.5. Also, the “hS1P1 B-arrestin2 pEC50” value in experiment [2] is listed as greater than 5. Moreover, in experiment [3], the inhibition in vivo at 3 mg/kg is greater than 50%.

As for `N#Cc1cc(-c2nc(-c3ccc4c(c3)NC(=O)CC4)no2)ccc1NCC1CC1` [Compound 471, 2-((cyclopropylmethyl)amino)-5-(3-(2-oxo-1,2,3,4-tetrahydroquinolin-7-yl)-1,2,4-oxadiazol-5-yl)benzonitrile], the “hS1P1 cAMP pEC50” value in experiment [1] is reported as greater than 6.5. The “hS1P1 B-arrestin2 pEC50” value in experiment [2] was greater than 5. Moreover, in experiment [3], the inhibition in vivo at 3 mg/kg is less than 50%.

Turning to `N#Cc1cc(-c2nc(-c3ccc4[nH]c(=O)[nH]c4c3)no2)ccc1NCC1CC1` [Compound 729, 2-((cyclopropylmethyl)amino)-5-(3-(2-oxo-2,3-dihydro-1H-benzo[d]imidazol-5-yl)-1,2,4-oxadiazol-5-yl)benzonitrile], in experiment [3], the inhibition in vivo at 3 mg/kg was greater than 50%.

Regarding `N#Cc1cc(-c2nnc(-c3ccc4cnccc4c3)o2)ccc1NCC(F)F` [Compound 733, 2-[(2,2-difluoroethyl)amino]-5-[5-(isoquinolin-6-yl)-1,3,4-oxadiazol-2-yl]benzonitrile], in experiment [3], the inhibition in vivo at 3 mg/kg was greater than 50%.

On to `CC(C)Nc1ccc(-c2nnc(-c3ccc4cnccc4c3)o2)cc1C#N` [Compound 735, 5-[5-(isoquinolin-6-yl)-1,3,4-oxadiazol-2-yl]-2-[(propan-2-yl)amino]benzonitrile], for which the inhibition in vivo at 3 mg/kg in experiment [3] was less than 50%.

On to `CC(C)Nc1ccc(-c2nnc(-c3ccc4ncccc4c3)o2)cc1C#N` [Compound 736, 2-[(propan-2-yl)amino]-5-[5-(quinolin-6-yl)-1,3,4-oxadiazol-2-yl]benzonitrile], for which the inhibition in vivo at 3 mg/kg in experiment [3] is greater than 50%.
